The conditions of data set [1]: patients, SR-MDMA paired psychotherapy; 25% in placebo group; cited from earlier work.
The target of data set [2] is T1, SERT (Homo sapiens, UniProt P31645).
T1 construct: host or cells: HEK293T cells, transient transfection with Lipofectamine 3000
The conditions noted are these: other studies; cited from earlier work.

The subject of data set [3] is rat cortical neurons. The experiment in a line: Dendritogenesis (Sholl analysis) in cultured cortical neurons. Format: cell-based. To be noted: for dendritic complexity (Sholl analysis, Nmax): DIV 6 rat cortical cultures, 72-hours treatment, 10 uM and 100 nM, vs VEH; for dendritogenesis effect after ketanserin pretreatment: KTSN added 30 minutes before, 10-fold excess, DIV 6, 72-hours; for dendritic arbor complexity (Sholl analysis): increasing concentrations, efficacy in the nanomolar range. Here is the method:
For the dendritogenesis experiments conducted using cultured cortical neurons, E18 timed pregnant Sprague Dawley rats were obtained from Charles River Laboratories. Full culturing, staining and analysis experiments were performed as previously described with the exception that there was no media change during treatments. Dendrites were visualized using a chicken anti-MAP2 antibody (1:10,000; EnCor, CPCA-MAP2) as previously reported. DMSO and ketamine […] were used as vehicle and positive controls, respectively. For blocking experiments, ketanserin was added 30-minutes prior to addition of agonists in 10-fold excess.
(§1) Statistical Analysis. Appropriate samples sizes were estimated based on our previous experiences performing similar experiments. Treatments were randomized, and data were analyzed by experimenters blinded to treatment conditions. All comparisons were planned prior to performing each experiment. Statistical analyses were performed using GraphPad Prism (v.8.1.2). Data are represented as mean±s.e.m., unless otherwise noted, with asterisks indicating *P<0.05, **P<0.01, ***P<0.001 and ****P<0.0001.

Data set [4] has as its system rat cortical neurons. The experiment in a line: Spinogenesis (dendritic spine density) in mature cortical cultures. Format: cell-based. To be noted: for dendritic spine density: DIV 15 rat cortical neurons, 24-hours treatment; for spinogenesis effect after ketanserin pretreatment: KTSN 30-minute pretreatment, 10-fold excess, DIV 15, 24-hours. Here is the method:
Spinogenesis experiments were performed as previously described with the exception that cells were treated at DIV14 instead of DIV18 and then fixed on DIV15. The images were taken on a Nikon HCA Confocal microscope a with a 100x/NA 1.45 oil objective. DMSO and ketamine […] were used as vehicle and positive controls, respectively. For blocking experiments, ketanserin was added 30-minutes prior to addition of agonists in 10-fold excess.
as §1

In a further data set the test system is 5-HT2A biosensor. The experiment in a line: psychLight 5-HT2A biosensor in cultured cortical neurons. In kind it is cell-based. To be noted: DIV 10-14 rat cortical neurons, 10 uM, vs vehicle. As to the method:
E18 rat cortical neurons were plated at 60,000 cells/well in glass 96-well plates (P96-1.5H-N, Cellvis) coated with poly-D-lysine (Sigma, P6407-5MG). At day in vitro (DIV) 3-7 neurons were infected with AAV9_hSynapsin_psychLight2 (Neurophotonics-Viral Vector Core) or AAV9-hsyn-GRAB_5-HT1.0 (Addgene, 140552-AAV9) at an MOI of 70,000. Neurons were kept in the incubator for one week to allow for viral expression. On imaging day (DIV 10-14), media was aspirated and wells were washed (1×200 μL) with HBSS supplemented with 2 mM MgCl2 and 2 mM CaCl2. 50 μL HBSS was added to the wells of the assay plate and then imaged on a CellInsight CX7 HCA Platform (Thermo Fisher, CX7A1110) configured with a onstage incubator for live cell imaging (Thermo Fisher, NX7LIVE001) at 40×(N.A.=0.60) with 25 regions of interest (ROI) taken per well using an arbitrary ROI pattern for each well with no bias to location and no overlap of the ROIs (exposure=400 ms, LED power=100%). […]
Images were then analyzed using ImageJ by selecting ROIs surrounding individual neuronal cell bodies of the post-treatment images and recording the mean fluorescence, the same ROIs were applied to the pretreatment images to record the mean fluorescence. The […] values were calculated as previously reported.

The nature of data set [5]: Cued fear conditioning / fear extinction. Format: in vivo, mice. The conditions noted are these: for fear extinction test curve vs vehicle: 12.5 and 25 mg/kg curves; for freezing during extinction training (day 2): 12.5 and 25 mg/kg i.p. 30-min before extinction training; for conditioned freezing on extinction testing day (24-hours later, drug-free): treatment i.p. 30-min before extinction training on day 2, 16 CS tones. An excerpt: Mice were exposed to cued fear conditioning on day 1, fear extinction training on day 2 and extinction testing on Day 3. Mice were habituated to handling for 3 days before experimentation. On the day of the experiment mice were allowed to habituate to the behavior room for 1-hour before beginning the experiment. 15-minutes before starting the experiment, mice were separated out into individual holding cages.
Cued fear conditioning consisted of six pairings of a CS auditory cue (80-85 dB white noise, 15 s) and a co-terminating US footshock (0.85 mA and 2 s), each spaced 1.5 minutes apart. The fear conditioning apparatus (Med Associates model #MED-VFC2-SCT-R) consisted of a 30.5 cm×24.1 cm×21 cm internal soundproof chamber, with metal grated floors, an infrared camera, a sound generator, and a light source. Mice were initially placed in the conditioning apparatus and the first 1.5 minutes were stimulus free. After the last shock, the animals remained in the chambers for an additional 2 min before being returned to their home cages. […] Freezing responses for fear conditioning (day 1) are presented as the percentage of time spent freezing during the last 1.5 minutes after the last shock. The apparatus was cleaned with 70% EtOH in between trials.
Cued fear memory was assessed by exposing the animals to a novel context (lights off, A-frame insert, smooth plastic floor insert, additional vanilla odor) for 2 min prior to 16 presentations of auditory cues (80 dB white noise, 15 s) spaced 15 s apart. Freezing responses for cue testing (day 2 and 3) are presented as the percentage of time spent freezing during the tone presentations. The procedure was repeated on day 3 in the absence of drug.
Fear conditioning experiments were performed between the hours of 08:00-11:00. Freezing behavior was scored using Med Associates Video Freeze software v2.25 (motion threshold=100 au, detection method=linear, minimum freeze duration=15 frames, which is equal to a 0.5 s freeze). The apparatus was cleaned with 70% EtOH in between trials on day 1 and Sani-cloth gemicidal disposable cloths (PDI, Q89072) were used to clean the apparatus on days 2 and 3.

Data set [6] can be described thus: Novelty induced locomotion (NIL) test. Format: in vivo, mice. The conditions noted are these: for locomotion at the lower doses: 12.5 mg/kg and 25 mg/kg; for locomotion at highest dose: 50 mg/kg i.p., vs vehicle; for locomotion (total distance) in novel arena, dose dependence / time spent in the center of the arena: 12.5, 25, 50 mg/kg i.p., 30-minutes. Here is the method: (§2) The head-twitch response assay was performed as described previously using both male and female C57BL/6J mice (3 each per treatment). The mice were obtained from Jackson Laboratory and were approximately 9 weeks old at the time of the experiments. Before injecting the mice, their baseline temperature was measured using an IR thermometer as described. Compounds were administered via intraperitoneal (i.p.) injection (5 ml kg-1) using 0.9% saline as the vehicle. Immediately after the animals were placed in an arena for 30-minutes where their locomotor activity was assessed using AnyMaze automated tracking software. The behavior was also videotaped and later scored by two blind overserves for head-twitch responses, the results were averaged. Upon completion of the novelty induced locomotion assay their temperature was measured at the 30-minute mark. The mice were then transferred to a holding cage with their other treatment matched cage mates and their temperature was measured at the 90 and 120-minute mark.

Data set [7] can be described thus: Head-twitch response (HTR) assay. The conditions noted are these: first 20-minutes in novel arena; 12.5, 25, 50 mg/kg i.p. In kind it is in vivo, mice. Here is the method:
as §2

The nature of data set [8]: Body temperature assay (IR thermometer). In kind it is in vivo, mice. To be noted: for increase in body temperature (hyperthermia): 12.5, 25, 50 mg/kg i.p., measured for 2-hours. As to the method:
as §2

The nature of another data set: Tail suspension test. Format: in vivo, mice. The conditions noted are these: i.p. injection, tested after 24 h, vs vehicle. Here is the method: Male C57/BL6J mice (9-10 weeks of age at time of experiment) were obtained from the Jackson Lab and housed in a UCD vivarium. […] All experiments were carried out by the same experimenter who performed the handling. Twenty-four hours after treatments, animals were subjected to a tail suspension test. Animals were suspended from their tails approximately 16 cm from the top of the apparatus and 25 cm from the bottom of the apparatus. Behavior was video recorded for 6 min and analyzed later by an experimenter blinded to treatment conditions. Immobility was defined as the amount of time spent not struggling or attempting to generate momentum and was scored for the entire 6 min period. All TST sessions were performed between the hours of 08:00 and 13:00.

The target in data set [9] is T1, SERT. The experiment in a line: SERT efflux: [3H]5-HT release from SERT expressing HEK293T cells. The conditions noted are these: HEK293T cells transiently expressing SERT, 10 pM-100 uM. Format: cell-based.
Protocol: HEK293T cells were grown in Dulbecco's Modified Eagle Media (DMEM) supplemented with 10% fetal bovine serum (FBS) and 1% penicillin-streptomycin. 24 hours prior to the experiment, cells were plated in 24-well plates at a density of 150,000 cells/well and concurrently transfected using Lipofectamine 3000 according to the manufacturer's protocol. Cells were transfected with hSERT-N1-pEYFP (Addgene #70105) or a GFP control plasmid (Lonza pmaxGFP vector). The next day the wells were washed (1×500 μL) with 1× Hank's Balanced Salt Solution supplemented with 2 mM MgCl2 and 2 mM CaCl2 (HBSS) and the plate was placed on a 37° C. water bath for the remainder of the experiment. 250 μL of HBSS containing 10 nM 5-[1,2-3H[N]]-hydroxytryptamine creatinine sulfate (NET498001MC, Lot: 2902700) was added to the wells and incubated for 15 minutes, allowing uptake into SERT expressing HEK cells. Uptake was terminated by aspiration of wells followed by washes (3×500 μL) with HBSS. […] 200 μL of media was collected from each well and placed into a scintillation vial containing 1 mL PerkinElmer Ultima Gold™ scintillation cocktail to serve as the efflux fraction. […] Radioactivity in the form of disintegrations per minute (DPM) was determined the following day with the use of a Beckman LS 6000 liquid scintillation counter. […] The GFP control cells were checked to ensure radioactivity was below background levels.

“Also recorded” adds a separate entry of the source.

T1 sequence (P31645 whole entry): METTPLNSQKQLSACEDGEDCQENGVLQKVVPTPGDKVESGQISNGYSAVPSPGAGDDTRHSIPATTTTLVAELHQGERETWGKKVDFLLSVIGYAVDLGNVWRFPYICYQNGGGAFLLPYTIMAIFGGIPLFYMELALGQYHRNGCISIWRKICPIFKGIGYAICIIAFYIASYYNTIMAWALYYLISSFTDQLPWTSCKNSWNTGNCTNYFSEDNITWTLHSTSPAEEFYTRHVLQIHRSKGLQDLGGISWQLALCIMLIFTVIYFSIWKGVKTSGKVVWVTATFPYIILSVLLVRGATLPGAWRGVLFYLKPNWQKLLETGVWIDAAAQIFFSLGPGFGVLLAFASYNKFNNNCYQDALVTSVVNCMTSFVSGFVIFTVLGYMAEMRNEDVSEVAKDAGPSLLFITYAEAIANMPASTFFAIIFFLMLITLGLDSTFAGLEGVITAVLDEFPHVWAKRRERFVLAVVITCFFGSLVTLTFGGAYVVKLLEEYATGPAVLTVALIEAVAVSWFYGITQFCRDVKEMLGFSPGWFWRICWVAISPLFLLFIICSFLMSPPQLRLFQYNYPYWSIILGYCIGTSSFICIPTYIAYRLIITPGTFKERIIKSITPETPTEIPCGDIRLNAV

In the case of `CNC(C)Cc1ccc2c(c1)OCO2` (racemic) [SR-MDMA, S,R(+/−)-3,4-methylenedioxymethamphetamine], the “response rate in decreasing the symptoms of PTSD” value in [1] is recorded as 83%.
As for `CC(Cc1ccc2c(c1)OCO2)N(C)C` (racemic) [racemic version of LED], the “5-HT uptake inhibition and release” value at SERT [2] was “moderate ability to inhibit uptake of 5-HT as well as promote its release”.
On to “R-3,4-Methylenedioxy methamphetamine [R-MDMA, reference compound]”, for which, in the data set on rat cortical neurons [3], the “dendritic complexity (Sholl analysis, Nmax)” value is recorded as “increases in dendritic complexity”; the “dendritogenesis effect after ketanserin pretreatment” value was “blocked by ketanserin”; the “dendritic arbor complexity (Sholl analysis)” value is “robustly increased dendritic arbor complexity”. Besides, in the data set on rat cortical neurons [4], the dendritic spine density entry is given as “increases dendritic spine density, comparably to R-MDMA” and the “spinogenesis effect after ketanserin pretreatment” value was “KTSN blocks the spinogenesis effects”. Also, in the data set with 5-HT2A biosensor, the “psychlight 5-HT2A biosensor response” value was “Neither LED nor R-MDMA induced a significant response”. For the same compound, in [5], the “fear extinction test curve vs vehicle” value is “statistically lower than vehicle control”; the “freezing during extinction training (day 2)” value is “decreased freezing during extinction training and testing”; the “conditioned freezing on extinction testing day (24-hours later, drug-free)” value is “decreased freezing during extinction training and testing”. Also, in data set [6], the “locomotion at the lower doses” value is on record as “neither of them altered changes in locomotion or had psychostimulant properties”; the “locomotion at highest dose” value is on record as “exhibits psychostimulant effects”; the “locomotion (total distance) in novel arena, dose dependence” value is reported as “dose dependent increase in locomotion”; the “time spent in the center of the arena” value was “all doses decreased time spent in the center”. For the same compound, the “head twitch response (hallucinogenic potential)” value in [7] is “Neither compound elicited a significant HTR”. Also, in data set [8], the “increase in body temperature (hyperthermia)” value is given as “Neither compound induced any increases in body temperature”.
Take `C[C@H](Cc1ccc2c(c1)OCO2)N(C)C` [LED, (R)-1-(benzo[d][1,3]dioxol-5-yl)-N,N-dimethylpropan-2-amine]: in the data set with rat cortical neurons [3], the “dendritic complexity (Sholl analysis, Nmax)” value is on record as “increases in dendritic complexity”; the “dendritogenesis effect after ketanserin pretreatment” value is “blocked by ketanserin”; the “dendritic arbor complexity (Sholl analysis)” value is “robustly increased dendritic arbor complexity”. Further, the “promotion of plasticity (Sholl analysis), comparison of enantiomers and racemates” value with rat cortical neurons [3] (cultured cortical neurons, FIG. 5, listed as R-MDDMA) is listed as “more effect at promoting plasticity than either the S-enantiomer or the racemic mixture; also recorded: more effective than racemic MDMA”. In addition, in the data set on rat cortical neurons [4], the dendritic spine density result is recorded as “increases dendritic spine density” and the “spinogenesis effect after ketanserin pretreatment” value was “KTSN blocks the spinogenesis effects”. For the same compound, the “psychlight 5-HT2A biosensor response” value in the data set on 5-HT2A biosensor is listed as “Neither LED nor R-MDMA induced a significant response”. Also, in [5], the “fear extinction test curve vs vehicle” value was “statistically lower than the vehicle control curve”; the “freezing during extinction training (day 2)” value is listed as “neither dose influenced freezing during extinction training”; the “conditioned freezing on extinction testing day (24-hours later, drug-free)” value is “the 12.5 mg/kg dose of LED resulted in reduced freezing on testing day”. Moreover, the “fear extinction, females only” value in [5] (separated by sex, females) is on record as “females display enhanced extinction with the 12.5 mg/kg dose”. Moreover, the “fear extinction, males only” value in data set [5] (separated by sex, males) is “males display enhanced extinction with the 25 mg/kg dose”. In addition, in data set [6], the “locomotion at the lower doses” value is “neither of them altered changes in locomotion or had psychostimulant properties”; the “locomotion at highest dose” value is listed as “significant decrease in locomotion”; the “locomotion (total distance) in novel arena, dose dependence” value was “dose dependent decrease in locomotion”; the “time spent in the center of the arena” value is given as “only the highest doss caused a decrease in time spent in the center”. For the same compound, the “head twitch response (hallucinogenic potential)” value in data set [7] was “Neither compound elicited a significant HTR”. Further, in the data set “Tail suspension test”, the “antidepressant behavioral effect (tail suspension test immobility)” value is listed as “produces antidepressant behavioral effects”. In data set [8] (50 mg/kg i.p., 30-minute time point), the “body temperature relative to vehicle” value is recorded as “significant decrease in temperature”. Moreover, the “increase in body temperature (hyperthermia)” value in [8] was “Neither compound induced any increases in body temperature”. Also, the “[3H]5-HT release (efflux)” value on SERT [9] was “failed to induce [^3H]5-HT release”.

The record behind these values is patent US20250122164A1, “N,N-[…] ANALOGS FOR TREATING BRAIN DISORDERS” (The Regents of the University of California, priority 2021, published 2025).
